Measurements reported in ChEMBL document CHEMBL3997830, “Design, synthesis and biological evaluation of nonsecosteroidal vitamin D3 receptor ligands as anti-tumor agents” (Bioorg Med Chem Lett, 2017).

What was measured:
[1] = tested on: MCF7; experiment: Antiproliferative activity against human MCF7 cells after 72 hrs by MTT assay; assay type: functional, cell-based; conditions: MCF7, 72 h
[2] = tested on: PC-3; experiment: Antiproliferative activity against human PC3 cells after 72 hrs by MTT assay; assay type: functional, cell-based; conditions: PC-3, 72 h
[3] = target: T1, Vitamin D3 receptor (Homo sapiens, UniProt P11473); experiment: Inhibition of Fluormone VDR Red binding to human VDR LBD expressed in insect cells assessed as binding ability by fluorescence polarization assay
T1 sequence (P11473 whole entry): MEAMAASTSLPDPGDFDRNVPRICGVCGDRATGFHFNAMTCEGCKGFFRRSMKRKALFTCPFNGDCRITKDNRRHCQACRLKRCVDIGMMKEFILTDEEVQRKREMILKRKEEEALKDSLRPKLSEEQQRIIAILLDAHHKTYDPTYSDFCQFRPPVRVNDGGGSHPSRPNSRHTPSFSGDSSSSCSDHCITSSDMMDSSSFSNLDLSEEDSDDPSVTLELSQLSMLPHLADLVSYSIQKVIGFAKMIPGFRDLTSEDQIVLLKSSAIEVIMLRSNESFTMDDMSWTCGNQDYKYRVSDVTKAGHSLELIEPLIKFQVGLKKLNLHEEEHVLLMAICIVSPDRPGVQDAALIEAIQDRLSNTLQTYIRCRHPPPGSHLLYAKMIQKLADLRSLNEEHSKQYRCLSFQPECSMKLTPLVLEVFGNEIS

[4] = target: T2, Vitamin D3 receptor (Homo sapiens) (UniProt P11473); experiment: Inhibition of Fluormone VDR Red binding to human VDR LBD expressed in insect cells assessed as binding ability at 1 uM by fluorescence polarization assay relative to 1,25(OH)2D3; set-up: scale not given: the % may be the effect or the level left
T2 sequence (whole entry): T1 sequence (P11473 whole entry)

[5] = Selectivity index, ratio of IC50 for human L02 cells to IC50 for human MCF7 cells; assay type: functional
[6] = tested on: L02; experiment: Antiproliferative activity against human L02 cells after 72 hrs by MTT assay; assay type: cell-based; conditions: L02, 72 h
[7] = Selectivity index, ratio of IC50 for human L02 cells to IC50 for human PC3 cells; assay type: functional

| SMILES | IC50 [1] | IC50 [2] | IC50 [3] | Activity [4] | Ratio IC50 [5] | IC50 [6] | Ratio IC50 [7] |
| --- | --- | --- | --- | --- | --- | --- | --- |
| CCCCC(=O)c1ccc(C(CC)(CC)c2ccc(C#CC(O)(CC)CC)c(C)c2)n1CC | > 50 µM | > 50 µM |  |  |  |  |  |
| CCn1c(C(=O)NCCCO)ccc1C(CC)(CC)c1ccc(C#CC(O)(CC)CC)c(C)c1 | 5.95 µM | > 50 µM | 0.123 µM | 59.7% |  |  |  |
| CCn1c(C(=O)N[C@H](C(=O)O)C(C)C)ccc1C(CC)(CC)c1ccc(C#CC(O)(CC)CC)c(C)c1 | 13 µM | 5 µM |  | 5.9% |  |  |  |
| CCn1c(C(=O)NCC(=O)O)ccc1C(CC)(CC)c1ccc(C#CC(O)(CC)CC)c(C)c1 | 5.14 µM | 2.25 µM | 0.0857 µM | 55.4% |  |  |  |
| CCN(CC)CCNC(=O)c1ccc(C(CC)(CC)c2ccc(OCC(O)C(C)(C)C)c(C)c2)n1CC (stereo unspecified) | 1.37 µM | 2.8 µM | 0.0768 µM | 25.5% | 15.5 | 21.2 µM | 7.6 |
| CCn1cc(C(CC)(CC)c2ccc(C#CC(O)(CC)CC)c(C)c2)cc1C(=O)NCCCN(C)C | 20.2 µM | 15.1 µM |  | 31.6% |  |  |  |
| CCn1c(C(=O)NCCC(=O)OC)ccc1C(CC)(CC)c1ccc(C#CC(O)(CC)CC)c(C)c1 | > 50 µM | 36.3 µM |  |  |  |  |  |
| CCn1c(C(=O)On2nnc3ccccc32)ccc1C(CC)(CC)c1ccc(C#CC(O)(CC)CC)c(C)c1 | > 50 µM | > 50 µM |  |  |  |  |  |
| CCn1cc(C(CC)(CC)c2ccc(C#CC(O)(CC)CC)c(C)c2)cc1C(=O)N[C@H](C(=O)O)C(C)C | 12.6 µM | 3.75 µM |  | 20% |  |  |  |
| CCCCC(=O)c1cc(C(CC)(CC)c2ccc(C#CC(O)(CC)CC)c(C)c2)cn1CC | > 50 µM | 48.1 µM |  |  |  |  |  |
| CCn1cc(C(CC)(CC)c2ccc(C#CC(O)(CC)CC)c(C)c2)cc1C(=O)NCCC(=O)O | 30.6 µM | > 50 µM |  | 4.3% |  |  |  |
| CCn1c(C(=O)NCCC(=O)O)ccc1C(CC)(CC)c1ccc(C#CC(O)(CC)CC)c(C)c1 | > 50 µM | 5.13 µM |  | 13.6% |  |  |  |
| CCn1cc(C(CC)(CC)c2ccc(C#CC(O)(CC)CC)c(C)c2)cc1C(=O)OCCO | 1.88 µM | 11.4 µM |  | 29.7% |  |  |  |
| CCn1cc(C(CC)(CC)c2ccc(C#CC(O)(CC)CC)c(C)c2)cc1C(=O)NCCN(C)C | 13.4 µM | 10.1 µM | 0.0513 µM | 55.3% |  |  |  |
| CCn1cc(C(CC)(CC)c2ccc(C#CC(O)(CC)CC)c(C)c2)cc1C(=O)NCC(=O)O | 17.5 µM | 6.3 µM |  | 14.6% |  |  |  |
| CCn1cc(C(CC)(CC)c2ccc(C#CC(O)(CC)CC)c(C)c2)cc1C(=O)N[C@@H](C(=O)O)C(C)C | 18 µM | 10.3 µM |  | 5.9% |  |  |  |
| CCN(CC)CCCNC(=O)c1ccc(C(CC)(CC)c2ccc(C#CC(O)(CC)CC)c(C)c2)n1CC | 17.8 µM | 8.5 µM |  | 18.8% |  |  |  |
| CCN(CC)CCNC(=O)c1ccc(C(CC)(CC)c2ccc(C#CC(O)(CC)CC)c(C)c2)n1CC | 3.77 µM | 5.85 µM | 0.0732 µM | 62.2% | 5.4 | 20.5 µM | 3.5 |
| CCn1c(C(=O)NCc2ccc(OC)cc2)ccc1C(CC)(CC)c1ccc(C#CC(O)(CC)CC)c(C)c1 | > 50 µM | > 50 µM |  | 4% |  |  |  |
| CCn1cc(C(CC)(CC)c2ccc(C#CC(O)(CC)CC)c(C)c2)cc1C(=O)NCC(=O)OC | 26.5 µM | 17.4 µM |  |  |  |  |  |
| CCN(CC)CCNC(=O)c1cc(C(CC)(CC)c2ccc(C#CC(O)(CC)CC)c(C)c2)cn1CC | 1.8 µM | 5.35 µM | 0.0565 µM | 50.3% | 23.4 | 42.1 µM | 7.9 |
| CCn1cc(C(CC)(CC)c2ccc(C#CC(O)(CC)CC)c(C)c2)cc1C(=O)N[C@@H](C)CO | 1.91 µM | 6.05 µM |  | 19.8% | 18.5 | 35.4 µM | 5.9 |
| C#CCCOC(=O)c1ccc(C(CC)(CC)c2ccc(C#CC(O)(CC)CC)c(C)c2)n1CC | > 50 µM | > 50 µM |  |  |  |  |  |
